SMILES strings stand for the structures. Where only a bound is given, the exact number is not on record here.

One test addresses Carbonic anhydrase 9 (Homo sapiens, UniProt Q16790). Description: Inhibition of human carbonic anhydrase-9 incubated for 15 mins by stopped-flow CO2 hydration assay.
As for `CCCN(CCC)S(=O)(=O)c1ccc(C(=O)N[C@@H](C)C(=O)O)cc1`, the Ki (usually the equilibrium dissociation constant of an inhibitor or competing ligand from its target) was found to be 27 nM. Still for that read-out and setting: the result for `CCCN(CCC)S(=O)(=O)c1ccc(C(=O)N[C@@H](CC(C)C)C(=O)O)cc1` reads 26 nM; that for `CCCN(CCC)S(=O)(=O)c1ccc(C(=O)N[C@@H](Cc2ccccc2)C(=O)O)cc1`, 210 nM; that for `CCCN(CCC)S(=O)(=O)c1ccc(C(=O)N[C@@H](Cc2c[nH]c3ccccc23)C(=O)O)cc1`, 25 nM.

In turn, `CCCN(CCC)S(=O)(=O)c1ccc(C(=O)N[C@@H](CO)C(=O)O)cc1` gave a Ki of 27 nM. The molecule `CCCN(CCC)S(=O)(=O)c1ccc(C(=O)N[C@@H](Cc2ccc(O)cc2)C(=O)O)cc1` yielded a Ki of 32 nM. Still for that read-out and setting: the result for `CCCN(CCC)S(=O)(=O)c1ccc(C(=O)N[C@@H](CCC(=O)O)C(=O)O)cc1` reads 31 nM; that for `CCCN(CCC)S(=O)(=O)c1ccc(C(=O)N[C@@H](CCCCN)C(=O)O)cc1`, 32 nM; that for `CCCN(CCC)S(=O)(=O)c1ccc(C(=O)N[C@@H](CCCNC(=N)N)C(=O)O)cc1`, 26 nM. The same measure, in the same setting: in the case of `CCCN(CCC)S(=O)(=O)c1ccc(C(=O)N[C@@H](CCSC)C(=O)O)cc1` it was 61 nM; in that of `CCCN(CCC)S(=O)(=O)c1ccc(C(=O)NCC(N)=O)cc1`, 1.9 nM. For `CCCN(CCC)S(=O)(=O)c1ccc(C(=O)N[C@@H](C)C(N)=O)cc1`, the Ki was found to be 15 nM. The same measure, in the same setting: in the case of `CCCN(CCC)S(=O)(=O)c1ccc(C(=O)N[C@@H](CC(C)C)C(N)=O)cc1` it was 150 nM; in that of `CCCN(CCC)S(=O)(=O)c1ccc(C(=O)N[C@@H](Cc2ccccc2)C(N)=O)cc1`, 25 nM. `CCCN(CCC)S(=O)(=O)c1ccc(C(=O)N[C@@H](CO)C(N)=O)cc1`: the Ki was 2.6 nM. Molecule `CCCN(CCC)S(=O)(=O)c1ccc(C(=O)N[C@@H](Cc2ccc(O)cc2)C(N)=O)cc1` registered a Ki of 21 nM.

Molecule `CCCN(CCC)S(=O)(=O)c1ccc(C(=O)N[C@@H](CCCCN)C(N)=O)cc1` registered a Ki of 27 nM. As to `CCCN(CCC)S(=O)(=O)c1ccc(C(=O)N[C@@H](CCCNC(=N)N)C(N)=O)cc1`, the affinity corresponds to a Ki of 20 nM.

Molecule `CCCN(CCC)S(=O)(=O)c1ccc(C(=O)N[C@@H](CS)C(N)=O)cc1` came in with a Ki of 28 nM.

For a further test, the target named is Carbonic anhydrase 1 (Homo sapiens, UniProt P00915). Kind of test: Inhibition of human carbonic anhydrase-1 incubated for 15 mins by stopped-flow CO2 hydration assay.
Chain of Carbonic anhydrase 1 (P00915 whole entry): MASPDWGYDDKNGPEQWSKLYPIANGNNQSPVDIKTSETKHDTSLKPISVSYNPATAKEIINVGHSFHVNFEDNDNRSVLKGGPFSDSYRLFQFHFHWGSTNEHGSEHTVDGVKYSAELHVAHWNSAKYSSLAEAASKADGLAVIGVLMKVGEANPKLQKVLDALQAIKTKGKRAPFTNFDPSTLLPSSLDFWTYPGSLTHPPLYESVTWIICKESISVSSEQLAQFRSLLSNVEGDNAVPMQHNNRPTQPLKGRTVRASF
Take `CCCN(CCC)S(=O)(=O)c1ccc(C(=O)N[C@@H](CCSC)C(N)=O)cc1`: the Ki is > 10000 nM.

Another test deals with Carbonic anhydrase 12 (Homo sapiens, UniProt O43570). Description: Inhibition of human carbonic anhydrase-12 incubated for 15 mins by stopped-flow CO2 hydration assay.
Chain of Carbonic anhydrase 12 (O43570 whole entry): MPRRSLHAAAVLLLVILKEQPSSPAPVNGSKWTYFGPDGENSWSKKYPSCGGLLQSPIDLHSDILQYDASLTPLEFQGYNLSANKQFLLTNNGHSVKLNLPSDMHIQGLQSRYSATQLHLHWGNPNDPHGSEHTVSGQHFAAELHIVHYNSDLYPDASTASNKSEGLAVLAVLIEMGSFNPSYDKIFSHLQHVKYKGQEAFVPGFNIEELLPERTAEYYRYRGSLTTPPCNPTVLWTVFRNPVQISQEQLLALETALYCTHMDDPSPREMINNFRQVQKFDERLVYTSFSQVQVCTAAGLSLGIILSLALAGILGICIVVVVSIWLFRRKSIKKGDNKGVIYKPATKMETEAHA
For the molecule `CCCN(CCC)S(=O)(=O)c1ccc(C(=O)NCC(=O)O)cc1`, the Ki was > 10000 nM.

For the origin of these results see ChEMBL document CHEMBL3603815, “Exploring new Probenecid-based carbonic anhydrase inhibitors: Synthesis, biological evaluation and docking studies” (Bioorg Med Chem, 2015).
